Read-outs that look alike come from different tables or passages of the source.
How the values were obtained:
MRSA ATCC 43300 [1] = assay: Time-kill assay; format: cell-based, Staphylococcus aureus
Description: (§1) The MRSA and S. aureus in the logarithmic phase were diluted to 10^6 CFU/mL with MHB. Then diverse concentrations of NPDM or tiamulin were added to the bacteria solution reaching the final concentration of 1 × MIC, 2 × MIC, 4 × MIC, and 8 × MIC, respectively. All bacterial inoculums were cultured at 37 °C with shaking. A total of 100 μL samples were taken from the subcultures at 0, 3, 6, 9, and 24 h, respectively, and continuously diluted 10-fold in sterile saline; then, 25 μL diluent was plated on the MHA plate. All plates were placed at 37 °C for 24 h. The total number of colonies on the plate was counted, and the results were expressed as log (CFU/mL).

S. aureus ATCC 29213 = assay: Time-kill assay; format: cell-based, Staphylococcus aureus
Description: as §1

[2] = Acute oral toxicity in mice; format: in vivo; conditions: for LD50 at 2 weeks: both sexes, mice, oral single dose; for LD50 at 2 weeks / Mortality / Mortality Rate: mouse, in vivo, po; for Mortality / Mortality Rate: both, 2 weeks
Description: The acute oral toxicity of NPDM was evaluated according to the method reported in the literature. Mice were divided into 6 groups (10 animals each group, half male and half female) and were fasted for 12 h before the experiment. The NPDM was dissolved in DMSO and suspended in 0.5% sodium carboxymethyl cellulose solution. The volumes of suspension by oral gavages were 0.1 mL/10 g. The vehicle control group received DMSO without drug. All animals were observed twice daily for symptoms and mortality for two weeks. At the end of the study, all surviving animals were sacrificed.

MRSA ATCC 43300 [3] = assay: Galleria mellonella infection model; format: in vivo; conditions: Staphylococcus aureus, 120 h; Galleria mellonella larvae infected with MRSA, survival over 5 days
Description: The survival rate of Galleria mellonella was determined according to the literature with some modifications. Larvae of Galleria mellonella (16 per group) were injected with 10 μL of 10^8 CFU/mL MRSA inoculum into the last right proleg. Two hours after infection, larvae were injected with 10 μL of various doses (17.14, 25.71, 37.14, 57.14, and 85.71 mg/kg) of NPDM or tiamulin (used as reference drug) into the last left proleg. The larvae were maintained at 37 °C. Survival of the larvae was recorded daily for 5 days, and the ED50 was calculated.

[4] = Pharmacokinetic study in mice, plasma LC-MS/MS; format: in vivo
Description: Adult female mice fasted for 12 h before the experiment. The NPDM was administered intravenously at the dose of 10 mg/kg. Approximately 0.2 mL blood samples were collected from the ocular venous plexus at 0.083, 0.167, 0.25, 0.5, 0.75, 1, 2, 4, 6, 8, 12, and 24 h after administration. All samples were centrifuged at 3000 rpm for 10 min, then the plasma samples were separated and stored at −20 °C. After thawing at room temperature, samples were mixed with acetonitrile (HPLC grade, sample:acetonitrile = 1:4, v/v) and centrifuged at 12,000 rpm for 10 min. Then, the supernatant was purified by the 0.22 μm cellulose membrane filter and transferred into an autosampler vial for HPLC-MS/MS analysis. Information of the equipment and analysis conditions are available in the Supplemental Materials. The pharmacokinetic parameters of the NPDM were calculated using the non-compartmental model in WinNonlin 5.2 software (Pharsight, Mountain View, CA, USA).

[5] = female, mouse, plasma, iv, 10 mg/kg i.v., non-compartmental

Question: With `C=C[C@]1(C)C[C@@H](OC(=O)CN2CCN(C(=O)CN3CCN(c4ccc([N+](=O)[O-])cc4)CC3)CC2)[C@]2(C)[C@H](C)CC[C@]3(CCC(=O)[C@H]32)[C@@H](C)[C@@H]1O` [NPDM, 22-(4-(2-(4-nitrophenyl-piperazin-1-yl)-acetyl)-piperazin-1-yl)-22-deoxypleuromutilin] as the compound, how does the “Time-kill activity at 2 × MIC” value (MRSA ATCC 43300 [1]; 2 × MIC) read?
Answer: bactericidal activity

Question: And the “Concentration showing bactericidal activity (≥3 log10 CFU/mL decrease)” value (MRSA ATCC 43300 [1]; after incubation for 24 h)?
Answer: ≥ 2 × MIC

Question: And the “Concentration showing bacteriostatic effect” value (S. aureus ATCC 29213)?
Answer: ≥ 2 × MIC

Question: And the Acute toxicity classification ([2]; LD50 in the range of 501~5000 mg/kg)?
Answer: low-toxic compound

Question: And the LD50 at 2 weeks ([2]; modified Karber's formula, read-out: LD50)?
Answer: 3760 mg/kg

Question: What about the LD50 at 2 weeks ([2]; read-out: LD50 95% confidence interval) of the same compound?
Answer: 3010 to 4710 mg/kg

Question: What about the Mortality ([2]; 987.65 mg/kg) of the same compound?
Answer: 1

Question: What about the “Mortality Rate” value ([2]; 987.65 mg/kg) of the same compound?
Answer: 10%

Question: And the Mortality ([2]; 1481.48 mg/kg)?
Answer: 1

Question: What about the “Mortality Rate” value ([2]; 1481.48 mg/kg) of the same compound?
Answer: 10%

Question: And the Mortality ([2]; 2222.22 mg/kg)?
Answer: 2

Question: What about the “Mortality Rate” value ([2]; 2222.22 mg/kg) of the same compound?
Answer: 20%

Question: And the Mortality ([2]; 3333.33 mg/kg)?
Answer: 3

Question: And the “Mortality Rate” value ([2]; 3333.33 mg/kg)?
Answer: 30%

Question: And the Mortality ([2]; 5000 mg/kg)?
Answer: 5

Question: What about the “Mortality Rate” value ([2]; 5000 mg/kg) of the same compound?
Answer: 50%

Question: What about the ED50 (MRSA ATCC 43300 [3]) of the same compound?
Answer: 50.5 mg/kg

Question: What about the MRT ([4]; 10 mg/kg i.v., non-compartmental, 10 mg/kg) of the same compound?
Answer: 18.6 ± 3 min

Question: And the clearance ([4]; female, mouse, plasma, 10 mg/kg, single intravenous administration)?
Answer: 46 mL/min/kg

Question: What about the AUC(0-inf) [4, 5] of the same compound?
Answer: 3660 ± 370 ng·h/mL

Question: And the AUC(0-t) [4, 5]?
Answer: 3650 ± 400 ng·h/mL

Question: What about the Cmax [4, 5] of the same compound?
Answer: 8690 ± 740 ng/mL

Question: What about the Tmax [4, 5] of the same compound?
Answer: 4.98 min

Question: And the half-life [4, 5]?
Answer: 13.2 ± 2.4 min

Question: What about the MRT ([4]; female, mouse, plasma, iv, 10 mg/kg, 10 mg/kg i.v., non-compartmental, read-out: MRT) of the same compound?
Answer: 21.6 min
